Data on eight compounds can be found in publication PMC7394379, “Structure-guided screening strategy combining surface plasmon resonance with nuclear magnetic resonance for identification of small-molecule Argonaute 2 inhibitors” (PLoS ONE, 2020).

Like-named read-outs stand apart in the source and are kept apart here.

Assay [1] deals with T1, AGO2 MID domain (Homo sapiens, UniProt Q9UKV8).
T1 construct: MID domain Gln432-Leu578 (147 residues); pE-SUMOpro-3 His-SUMO fusion, tag removed by SUMO protease 2; E. coli BL21(DE3); 15N-labelled for NMR
Kind of assay: SPR inhibition, immobilised biotin-PEG-UMP versus AGO2 MID domain. The class given is binding.

For assay [2], the target named is T1, AGO2 MID domain. The assay is described as above. The class given is binding. The settings on record: HBS-EP+ pH 7.4, 2 mM DTT, 5% DMSO; competition at the 5'-terminal nucleotide site.
Assay [3] concerns the target T1, AGO2 MID domain. Kind of assay: 1H-15N HSQC NMR chemical shift perturbation. As to conditions: 20 °C, pH 6.70, 25 mM sodium phosphate, 150 mM NaCl, 2 mM TCEP; two binding sites suggested, one overlapping AMP.
For assay [4], the target named is T1, AGO2 MID domain. The assay is described as follows: SPR inhibition, immobilised biotin-PEG-UMP versus AGO2 MID domain. The format is binding. The settings on record: read-out: % inhibition at 500 μmol/L.
Setting [5] is: HBS-EP+ pH 7.4, 2 mM DTT, 5% DMSO, competition at the 5'-terminal nucleotide site.

Turning to `Nc1ncnc2c1ncn2[C@@H]1O[C@H](COP(=O)(O)O)[C@@H](O)[C@H]1O` [AMP], the 50% inhibitory concentration (IC50) in assay [1] (read-out: IC50) is about 200 µM. For the compound `Nc1ccn([C@@H]2O[C@H](COP(=O)(O)O)[C@@H](O)[C@H]2O)c(=O)n1` [CMP], the concentration for half-maximal inhibition (IC50) entry in assay [1] (setting [5]) is “AMP and UMP showed a stronger inhibition than CMP and GMP”. Turning to `Nc1nc2c(ncn2[C@@H]2O[C@H](COP(=O)(O)O)[C@@H](O)[C@H]2O)c(=O)[nH]1` [GMP], the IC50 entry in assay [1] (setting [5]) was “AMP and UMP showed a stronger inhibition than CMP and GMP”. As for `O=c1ccn([C@@H]2O[C@H](COP(=O)(O)O)[C@@H](O)[C@H]2O)c(=O)[nH]1` [UMP], the concentration for half-maximal inhibition (IC50) entry in assay [1] (setting [5]) was “AMP and UMP showed a stronger inhibition than CMP and GMP”.

Regarding `COc1cc(C=C2SC(=S)N(C(CCC(=O)O)C(=O)O)C2=O)cc(Cl)c1O` (stereo not drawn) [UZI/1999527], the IC30 entry in assay [2] is “Three of the hit compounds showed stronger inhibition than BCI-137 in the SPR analysis”. On to `COc1ccc(-c2nn(CCC(=O)O)cc2C=C2SC(=S)NC2=O)cc1` [Z56862757], for which the “1H-15N HSQC NMR chemical shift perturbation” value in assay [3] is on record as “NMR analysis suggests two Z56862757 binding sites, only one site could overlap with AMP”. For the same compound, the IC30 entry in assay [2] is listed as “Three of the hit compounds showed stronger inhibition than BCI-137 in the SPR analysis”.

Take `Cc1cccc(C(Nc2ccc3c(c2)OC(F)(F)O3)P(=O)(O)O)c1` (stereo not drawn) [Z317095268]: in assay [2], the IC30 result was “Three of the hit compounds showed stronger inhibition than BCI-137 in the SPR analysis”. `Nc1ncnc2c1ncn2[C@@H]1O[C@H](CO)[C@@H](O)[C@H]1O` [adenosine]: the inhibition at 500 µM in assay [4] was under 10%.

Usually IC50 stands for the concentration that gives 50% inhibition.
